Assay results from US10544143B2, “4-azaindole compounds” (BRISTOL-MYERS SQUIBB COMPANY, priority 2017, dated 2020).
Read-outs that look alike come from different tables or passages of the source.

How the values were obtained:
human TLR8 = human TLR8 (Homo sapiens (Human), UniProt Q9NR97); assay: TLR8 inhibition reporter assay (HEK-Blue SEAP); settings: read-out: TLR8 IC50;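 note: SEAP driven by IFN-β minimal promoter carrying NF-κB and AP-1 sites, compounds dosed 0.05 nM to 50 µM for 22 h, inhibition scaled between agonist-plus-DMSO and reference-inhibitor wells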
human TLR8, sequence (Q9NR97 27-1041): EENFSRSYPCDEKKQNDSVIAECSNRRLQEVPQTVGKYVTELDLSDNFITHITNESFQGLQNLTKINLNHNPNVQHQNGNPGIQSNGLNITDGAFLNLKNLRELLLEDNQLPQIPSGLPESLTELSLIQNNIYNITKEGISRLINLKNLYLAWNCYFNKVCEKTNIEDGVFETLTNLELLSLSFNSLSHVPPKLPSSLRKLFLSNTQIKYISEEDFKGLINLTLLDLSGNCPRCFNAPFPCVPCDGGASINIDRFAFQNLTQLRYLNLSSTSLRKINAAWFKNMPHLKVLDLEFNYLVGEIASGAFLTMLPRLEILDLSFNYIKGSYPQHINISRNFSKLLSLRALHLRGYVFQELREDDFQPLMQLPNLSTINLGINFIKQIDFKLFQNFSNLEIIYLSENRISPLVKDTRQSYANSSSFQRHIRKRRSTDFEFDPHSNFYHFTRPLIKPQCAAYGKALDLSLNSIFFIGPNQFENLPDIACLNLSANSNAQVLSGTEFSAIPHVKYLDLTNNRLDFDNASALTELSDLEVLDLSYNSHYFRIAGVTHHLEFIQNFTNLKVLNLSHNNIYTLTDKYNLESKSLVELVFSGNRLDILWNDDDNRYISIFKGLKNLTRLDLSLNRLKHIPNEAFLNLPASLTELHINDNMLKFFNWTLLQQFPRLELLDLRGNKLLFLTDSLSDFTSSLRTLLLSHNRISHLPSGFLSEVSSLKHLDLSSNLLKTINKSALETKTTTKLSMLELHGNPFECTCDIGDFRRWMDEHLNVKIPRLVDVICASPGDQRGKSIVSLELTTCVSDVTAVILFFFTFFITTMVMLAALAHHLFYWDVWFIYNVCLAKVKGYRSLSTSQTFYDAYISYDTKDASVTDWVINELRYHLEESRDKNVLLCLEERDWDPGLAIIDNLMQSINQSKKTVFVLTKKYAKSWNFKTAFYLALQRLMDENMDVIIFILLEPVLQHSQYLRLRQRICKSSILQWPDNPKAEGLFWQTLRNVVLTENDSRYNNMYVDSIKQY

human TLR7 = human TLR7 (Homo sapiens (Human), UniProt Q9NYK1); assay: TLR7 inhibition reporter assay (HEK-Blue SEAP); type: cell-based
human TLR7, sequence (Q9NYK1 27-1049): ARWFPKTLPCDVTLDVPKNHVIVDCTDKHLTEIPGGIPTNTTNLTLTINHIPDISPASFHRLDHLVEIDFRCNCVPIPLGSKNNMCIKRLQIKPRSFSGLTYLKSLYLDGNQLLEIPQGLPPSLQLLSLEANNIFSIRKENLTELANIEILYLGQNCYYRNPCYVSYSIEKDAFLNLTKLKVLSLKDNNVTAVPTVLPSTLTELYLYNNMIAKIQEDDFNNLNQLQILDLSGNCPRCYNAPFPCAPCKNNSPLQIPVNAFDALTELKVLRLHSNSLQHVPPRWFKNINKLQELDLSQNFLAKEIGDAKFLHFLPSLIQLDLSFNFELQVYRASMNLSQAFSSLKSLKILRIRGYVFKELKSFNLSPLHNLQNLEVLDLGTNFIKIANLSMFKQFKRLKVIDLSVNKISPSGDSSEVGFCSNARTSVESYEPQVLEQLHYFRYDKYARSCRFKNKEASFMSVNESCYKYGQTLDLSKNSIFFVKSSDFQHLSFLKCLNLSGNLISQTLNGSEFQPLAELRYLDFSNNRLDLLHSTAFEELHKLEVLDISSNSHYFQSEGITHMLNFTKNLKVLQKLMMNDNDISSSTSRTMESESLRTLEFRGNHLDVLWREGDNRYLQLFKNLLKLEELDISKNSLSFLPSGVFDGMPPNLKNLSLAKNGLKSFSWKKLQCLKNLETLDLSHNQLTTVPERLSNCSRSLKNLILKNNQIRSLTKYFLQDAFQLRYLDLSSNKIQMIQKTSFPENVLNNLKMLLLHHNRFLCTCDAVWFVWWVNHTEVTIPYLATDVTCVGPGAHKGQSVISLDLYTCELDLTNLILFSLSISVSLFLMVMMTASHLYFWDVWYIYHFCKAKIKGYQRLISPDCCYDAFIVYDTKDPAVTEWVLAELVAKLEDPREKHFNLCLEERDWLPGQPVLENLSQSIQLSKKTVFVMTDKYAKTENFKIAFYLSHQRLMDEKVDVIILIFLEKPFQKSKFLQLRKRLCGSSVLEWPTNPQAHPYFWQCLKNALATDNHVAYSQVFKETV

human TLR9 = human TLR9 (Homo sapiens (Human), UniProt Q9NR96); assay: TLR9 inhibition reporter assay (HEK-Blue SEAP); settings: read-out: TLR9 IC50;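 note: SEAP driven by an IFN-β minimal promoter with NF-κB and AP-1 sites, read after 22 h, compounds dosed 0.05 nM–50 µM, inhibition scaled between agonist plus DMSO and reference-inhibitor wells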
human TLR9, sequence (Q9NR96 26-1032): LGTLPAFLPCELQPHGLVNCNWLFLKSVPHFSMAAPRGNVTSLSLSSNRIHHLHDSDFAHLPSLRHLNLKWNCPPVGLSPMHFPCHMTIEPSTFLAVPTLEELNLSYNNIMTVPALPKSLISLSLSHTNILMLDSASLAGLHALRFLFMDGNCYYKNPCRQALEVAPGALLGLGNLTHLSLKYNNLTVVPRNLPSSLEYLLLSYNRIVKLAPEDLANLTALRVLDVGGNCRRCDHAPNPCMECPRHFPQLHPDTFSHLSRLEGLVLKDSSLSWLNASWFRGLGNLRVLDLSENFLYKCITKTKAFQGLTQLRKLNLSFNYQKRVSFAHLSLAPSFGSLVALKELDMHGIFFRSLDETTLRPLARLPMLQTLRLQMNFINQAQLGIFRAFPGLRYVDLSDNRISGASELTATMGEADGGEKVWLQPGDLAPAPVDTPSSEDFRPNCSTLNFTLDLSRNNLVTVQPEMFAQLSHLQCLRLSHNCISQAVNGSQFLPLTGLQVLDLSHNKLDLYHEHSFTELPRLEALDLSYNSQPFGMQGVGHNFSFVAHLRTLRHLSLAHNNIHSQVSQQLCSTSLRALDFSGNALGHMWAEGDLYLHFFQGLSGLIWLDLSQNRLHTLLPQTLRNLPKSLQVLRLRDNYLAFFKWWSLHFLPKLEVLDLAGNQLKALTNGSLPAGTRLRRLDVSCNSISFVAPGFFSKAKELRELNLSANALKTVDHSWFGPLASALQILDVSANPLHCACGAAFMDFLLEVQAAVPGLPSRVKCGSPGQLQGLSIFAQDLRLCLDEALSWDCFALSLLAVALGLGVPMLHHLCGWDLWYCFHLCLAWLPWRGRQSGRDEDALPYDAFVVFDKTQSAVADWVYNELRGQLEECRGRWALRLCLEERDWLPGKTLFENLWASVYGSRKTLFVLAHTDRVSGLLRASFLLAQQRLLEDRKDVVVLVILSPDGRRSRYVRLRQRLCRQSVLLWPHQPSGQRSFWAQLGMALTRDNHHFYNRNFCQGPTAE

[1] = HEK-Blue cells overexpressing human TLR8, R848 15.9 μM stimulation, SEAP reporter
[2] = HEK-Blue cells overexpressing human TLR7, gardiquimod 7.5 μM stimulation, SEAP reporter
[3] = HEK-Blue cells overexpressing human TLR9, ODN2006 5 nM stimulation, SEAP reporter

| IC50 (human TLR8; [1]) [nM] | IC50 (human TLR7; [2]) [nM] | IC50 (human TLR9; [3]) [nM] | IC50 (human TLR8; HEK-Blue cells overexpressing human TLR8, SEAP reporter, R848 15.9 μM) [nM] | IC50 (human TLR7; HEK-Blue cells overexpressing human TLR7, SEAP reporter, gardiquimod 7.5 μM) [nM] | IC50 (human TLR9; HEK-Blue cells overexpressing human TLR9, SEAP reporter, ODN2006 5 nM) [nM] | SMILES |
| --- | --- | --- | --- | --- | --- | --- |
| 4.8 | 0.72 | 2790 |  |  |  | COc1cc(-c2[nH]c3cc(F)c(C4CCC(N5CC6(COC6)C5)CC4)nc3c2C(C)C)cn2ncnc12 (stereo not drawn) [Example 344] |
| 0.68 | 0.21 | 1680 |  |  |  | COc1cc(-c2[nH]c3cc(F)c(C4CCC(NC5COC5)CC4)nc3c2C(C)C)cn2ncnc12 (stereo not drawn) [Example 345] |
| 6 | 0.32 | 6290 |  |  |  | COc1cc(-c2[nH]c3cc(F)c(C4CCC(NC5COC5)CC4)nc3c2C(C)C)cn2ncnc12 (stereo not drawn) [Example 346] |
| 1 | 0.27 | 2470 |  |  |  | CNC1CCC(c2nc3c(C(C)C)c(-c4cc(OC)c5ncnn5c4)[nH]c3cc2F)CC1 (stereo not drawn) [Example 347] |
| 8.3 | 0.82 | 6960 |  |  |  | CNC1CCC(c2nc3c(C(C)C)c(-c4cc(OC)c5ncnn5c4)[nH]c3cc2F)CC1 (stereo not drawn) [Example 348] |
| 63 | 7.7 | > 50000 |  |  |  | Cc1c(-c2[nH]c3ccc(C4CCC(=O)CC4)nc3c2C(C)C)cn2ncnc2c1C [Example 349] |
| 1 | 0.72 | 1160 |  |  |  | Cc1c(-c2[nH]c3ccc(C4CCC(NC5COC5)CC4)nc3c2C(C)C)cn2ncnc2c1C (stereo not drawn) [Example 350] |
| 4.3 | 2.3 | 1690 |  |  |  | Cc1c(-c2[nH]c3ccc(C4CCC(NC5COC5)CC4)nc3c2C(C)C)cn2ncnc2c1C (stereo not drawn) [Example 351] |
| 9.2 | 5.4 | 2320 |  |  |  | Cc1c(-c2[nH]c3ccc(C4CCC(NCC(=O)N(C)C)CC4)nc3c2C(C)C)cn2ncnc2c1C (stereo not drawn) [Example 352] |
| 0.96 | 0.64 | 940 |  |  |  | Cc1c(-c2[nH]c3ccc(C4CCC(N(C)C)CC4)nc3c2C(C)C)cn2ncnc2c1C (stereo not drawn) [Example 353] |
| 2.3 | 1 | 790 |  |  |  | Cc1c(-c2[nH]c3ccc(C4CCC(NCC(=O)N(C)C)CC4)nc3c2C(C)C)cn2ncnc2c1C (stereo not drawn) [Example 354] |
| 10 | 2.6 | 4500 |  |  |  | Cc1c(-c2[nH]c3ccc(C4CCC(N(C)C)CC4)nc3c2C(C)C)cn2ncnc2c1C (stereo not drawn) [Example 355] |
| 5.1 | 2.8 | 2860 |  |  |  | Cc1c(-c2[nH]c3ccc(C4CCC(N(C)C)CC4)nc3c2C(C)C)cn2ncnc2c1C (stereo not drawn) [Example 356] |
| 4.4 | 3.9 | 1050 |  |  |  | Cc1cnc(CNC2CCC(c3ccc4[nH]c(-c5cn6ncnc6c(C)c5C)c(C(C)C)c4n3)CC2)cn1 (stereo not drawn) [Example 357] |
| 2.8 | 0.95 | 1320 |  |  |  | Cc1c(-c2[nH]c3ccc(C4CCC(NC(C)C)CC4)nc3c2C(C)C)cn2ncnc2c1C (stereo not drawn) [Example 358] |
| 29 | 9.1 | 4870 |  |  |  | Cc1cnc(CNC2CCC(c3ccc4[nH]c(-c5cn6ncnc6c(C)c5C)c(C(C)C)c4n3)CC2)cn1 (stereo not drawn) [Example 359] |
| 3.4 | 1.3 | 1410 |  |  |  | Cc1c(-c2[nH]c3ccc(C4CCC(N5CCCC5)CC4)nc3c2C(C)C)cn2ncnc2c1C (stereo not drawn) [Example 360] |
| 1 | 0.79 | 1250 |  |  |  | Cc1c(-c2[nH]c3ccc(C4CCC(N(C)CCC#N)CC4)nc3c2C(C)C)cn2ncnc2c1C (stereo not drawn) [Example 361] |
| 5.1 | 1.6 | 1630 |  |  |  | Cc1c(-c2[nH]c3ccc(C4CCC(N5CCOCC5)CC4)nc3c2C(C)C)cn2ncnc2c1C (stereo not drawn) [Example 362] |
| 6.6 | 3.3 | 1480 |  |  |  | Cc1c(-c2[nH]c3ccc(C4CCC(NC(C)C)CC4)nc3c2C(C)C)cn2ncnc2c1C (stereo not drawn) [Example 363] |
| 9.6 | 1.5 | 2520 |  |  |  | Cc1c(-c2[nH]c3ccc(C4CCC(N(C)C(C)C)CC4)nc3c2C(C)C)cn2ncnc2c1C (stereo not drawn) [Example 364] |
| 7.9 | 4.2 | 3200 |  |  |  | Cc1c(-c2[nH]c3ccc(C4CCC(N(C)CCO)CC4)nc3c2C(C)C)cn2ncnc2c1C (stereo not drawn) [Example 365] |
| 15 | 5.3 | 4690 |  |  |  | Cc1c(-c2[nH]c3ccc(C4CCC(N(C)CCC#N)CC4)nc3c2C(C)C)cn2ncnc2c1C (stereo not drawn) [Example 366] |
| 2.5 | 1.5 | 1610 |  |  |  | Cc1c(-c2[nH]c3ccc(C4CCC(N(C)CC(=O)N(C)C)CC4)nc3c2C(C)C)cn2ncnc2c1C (stereo not drawn) [Example 368, 2-((4-(2-(7,8-dimethyl-[1,2,4]triazolo[1,5-a]pyridin-6-yl)-3-isopropyl-1H-pyrrolo[3,2-b]pyridin-5-yl)cyclohexyl)(methyl)amino)-N,N-dimethylacetamide] |
| 23 | 8.6 | > 50000 |  |  |  | Cc1c(-c2[nH]c3ccc(C4CCC(N5CC(F)(F)C5)CC4)nc3c2C(C)C)cn2ncnc2c1C (stereo not drawn) [Example 370] |

| IC50 (human TLR8; [1]) [nM] | IC50 (human TLR7; [2]) [nM] | IC50 (human TLR9; [3]) [nM] | IC50 (human TLR8; HEK-Blue cells overexpressing human TLR8, SEAP reporter, R848 15.9 μM) [nM] | IC50 (human TLR7; HEK-Blue cells overexpressing human TLR7, SEAP reporter, gardiquimod 7.5 μM) [nM] | IC50 (human TLR9; HEK-Blue cells overexpressing human TLR9, SEAP reporter, ODN2006 5 nM) [nM] | SMILES |
| --- | --- | --- | --- | --- | --- | --- |
| 14 | 6 | 4360 |  |  |  | C#CCNC1CCC(c2ccc3[nH]c(-c4cn5ncnc5c(C)c4C)c(C(C)C)c3n2)CC1 (stereo not drawn) [Example 371] |
| 7.6 | 3.2 | 1460 |  |  |  | Cc1c(-c2[nH]c3ccc(C4CCC(N5CCC[C@@H]5CO)CC4)nc3c2C(C)C)cn2ncnc2c1C (stereo partly drawn) [Example 372] |
| 8.3 | 8.6 | 1960 |  |  |  | Cc1c(-c2[nH]c3ccc(C4CCC(NCCC(F)(F)F)CC4)nc3c2C(C)C)cn2ncnc2c1C (stereo not drawn) [Example 373] |
| 187 | 36 | 21600 |  |  |  | Cc1c(-c2[nH]c3ccc(C4CCC(N5CC(F)(F)C5)CC4)nc3c2C(C)C)cn2ncnc2c1C (stereo not drawn) [Example 374] |
| 4.4 | 0.87 | 2720 |  |  |  | C#CCNC1CCC(c2ccc3[nH]c(-c4cn5ncnc5c(C)c4C)c(C(C)C)c3n2)CC1 (stereo not drawn) [Example 375] |
| 1.2 | 0.71 | 1030 |  |  |  | Cc1c(-c2[nH]c3ccc(C4CCC(NCCC(F)(F)F)CC4)nc3c2C(C)C)cn2ncnc2c1C (stereo not drawn) [Example 376] |
| 2.2 | 2.1 | 767 |  |  |  | Cc1c(-c2[nH]c3ccc(C4CCC(N5CCC[C@@H]5CO)CC4)nc3c2C(C)C)cn2ncnc2c1C (stereo partly drawn) [Example 377] |
| 4.6 | 1.6 | 1640 |  |  |  | CCN(CC)C1CCC(c2ccc3[nH]c(-c4cn5ncnc5c(C)c4C)c(C(C)C)c3n2)CC1 (stereo not drawn) [Example 378] |
| 4.7 | 2.6 | 909 |  |  |  | Cc1c(-c2[nH]c3ccc(C4CCC(NCCO)CC4)nc3c2C(C)C)cn2ncnc2c1C (stereo not drawn) [Example 379] |
| 1.6 | 1.4 | 1880 |  |  |  | Cc1c(-c2[nH]c3ccc(C4CCC(N(C)C5CC5)CC4)nc3c2C(C)C)cn2ncnc2c1C (stereo not drawn) [Example 380] |
| 5.5 | 3.7 | 8060 |  |  |  | Cc1c(-c2[nH]c3ccc(C4CCC(N5CCC(F)(F)CC5)CC4)nc3c2C(C)C)cn2ncnc2c1C (stereo not drawn) [Example 381] |
| 22 | 7.8 | > 50000 |  |  |  | Cc1c(-c2[nH]c3ccc(C4CCC(N5CCS(=O)(=O)CC5)CC4)nc3c2C(C)C)cn2ncnc2c1C (stereo not drawn) [Example 382] |
| 167 | 33 | > 50000 |  |  |  | Cc1c(-c2[nH]c3ccc(C4CCC(N5CCS(=O)(=O)CC5)CC4)nc3c2C(C)C)cn2ncnc2c1C (stereo not drawn) [Example 383] |
| 25 | 13 | 1530 |  |  |  | Cc1c(-c2[nH]c3ccc(C4CCC(NCCC#N)CC4)nc3c2C(C)C)cn2ncnc2c1C (stereo not drawn) [Example 384] |
| 46 | 22 | 11200 |  |  |  | Cc1c(-c2[nH]c3ccc(C4CCC(N5CCC(F)(F)CC5)CC4)nc3c2C(C)C)cn2ncnc2c1C (stereo not drawn) [Example 385] |
| 4.2 | 1.5 | 1440 |  |  |  | Cc1c(-c2[nH]c3ccc(C4CCC(N5CCC5)CC4)nc3c2C(C)C)cn2ncnc2c1C (stereo not drawn) [Example 386] |
| 19 | 7.2 | 5510 |  |  |  | Cc1c(-c2[nH]c3ccc(C4CCC(N(C)C5CC5)CC4)nc3c2C(C)C)cn2ncnc2c1C (stereo not drawn) [Example 387] |
| 2.2 | 0.87 | 891 |  |  |  | CCN(C)C1CCC(c2ccc3[nH]c(-c4cn5ncnc5c(C)c4C)c(C(C)C)c3n2)CC1 (stereo not drawn) [Example 388] |
| 1.6 | 0.45 | 923 |  |  |  | COCCN(C)C1CCC(c2ccc3[nH]c(-c4cn5ncnc5c(C)c4C)c(C(C)C)c3n2)CC1 (stereo not drawn) [Example 389] |
| 7.6 | 1.6 | 3090 |  |  |  | CCN(C)C1CCC(c2ccc3[nH]c(-c4cn5ncnc5c(C)c4C)c(C(C)C)c3n2)CC1 (stereo not drawn) [Example 390] |
| 14 | 2.6 | 2450 |  |  |  | COCCN(C)C1CCC(c2ccc3[nH]c(-c4cn5ncnc5c(C)c4C)c(C(C)C)c3n2)CC1 (stereo not drawn) [Example 391] |
| 6.1 | 3.2 | 1750 |  |  |  | Cc1c(-c2[nH]c3ccc(C4CCC(N5CCC[C@H]5CO)CC4)nc3c2C(C)C)cn2ncnc2c1C (stereo partly drawn) [Example 392] |
| 1.3 | 0.47 | 360 |  |  |  | Cc1c(-c2[nH]c3ccc(C4CCC(N5CCC[C@H]5CO)CC4)nc3c2C(C)C)cn2ncnc2c1C (stereo partly drawn) [Example 393] |
| 1.5 | 1.4 | 1410 |  |  |  | Cc1ncc(CN(C)C2CCC(c3ccc4[nH]c(-c5cn6ncnc6c(C)c5C)c(C(C)C)c4n3)CC2)cn1 (stereo not drawn) [Example 394] |
|  |  |  | 10 | 7.4 | 1620 | COc1ncc(CN(C)C2CCC(c3ccc4[nH]c(-c5cn6ncnc6c(C)c5C)c(C(C)C)c4n3)CC2)cn1 (stereo not drawn) [Example 395] |
